Values of other authors as cited in patent publication US5478810A, “Peptide amides, processes for the preparation thereof and agents containing these as fibrin/thrombin clotting inhibitors” (Behringwerke Aktiengesellschaft, priority 1990, dated 1995).
No end group written: not given here. *: point of attachment. 4‑hydroxypiperidide = C-terminal 4-hydroxypiperidide, OC1CCN(*)CC1; 3‑methylpiperidide = C-terminal 3-methylpiperidide

Tested on: plasma clotting
Conditions: relative to GPRP = 1

Row | Substance | relative activity (amount of plasma which is inhibited with a defined amount of inhibitor)
1 | GPRP 3-methylpiperidide (GPRP-{3‑methylpiperidide}) [known peptide derivative presented at the XIth American Symposium on Peptides] | 1.29
2 | GPRP 4-hydroxypiperidide (GPRP-{4‑hydroxypiperidide}) [known peptide derivative presented at the XIth American Symposium on Peptides] | 1.2
3 | GPRP-NH2 | 3.52
